Literature values as cited in paper PMC3653294 (Bioorganic & medicinal chemistry, 2013).

Tested on: liver fibrosis

SMILES: CCOc1nc2cccc(C(=O)O)c2n1Cc1ccc(-c2ccccc2-c2nnn[nH]2)cc1 [Candesartan]
- effect on liver fibrosis: decreases liver fibrosis
